# Target: CES2 (Homo sapiens, UniProt O00748)
# Experiment: Enzyme Inhibition Assay
# Settings: pH 7.4; 25 °C
# Protocol: CE inhibition was determined using a spectrophotometric multiwell plate assay with o-NPA as a substrate. The rate of change in absorbance at 420 nm was measured at 15 sec intervals for 5 min and compared to wells containing no inhibitor. […] Further analysis of inhibitors was performed in condition that inhibitor concentrations ranged from 1 pM to 100 uM. Data were fitted to the equation. Examination of curve fits to identify the best model for enzyme inhibition. Ki values were then calculated from the equation predicted by Prism to be the best fit for the experimental data.
# Sequence of CES2 (O00748 whole entry, looked up): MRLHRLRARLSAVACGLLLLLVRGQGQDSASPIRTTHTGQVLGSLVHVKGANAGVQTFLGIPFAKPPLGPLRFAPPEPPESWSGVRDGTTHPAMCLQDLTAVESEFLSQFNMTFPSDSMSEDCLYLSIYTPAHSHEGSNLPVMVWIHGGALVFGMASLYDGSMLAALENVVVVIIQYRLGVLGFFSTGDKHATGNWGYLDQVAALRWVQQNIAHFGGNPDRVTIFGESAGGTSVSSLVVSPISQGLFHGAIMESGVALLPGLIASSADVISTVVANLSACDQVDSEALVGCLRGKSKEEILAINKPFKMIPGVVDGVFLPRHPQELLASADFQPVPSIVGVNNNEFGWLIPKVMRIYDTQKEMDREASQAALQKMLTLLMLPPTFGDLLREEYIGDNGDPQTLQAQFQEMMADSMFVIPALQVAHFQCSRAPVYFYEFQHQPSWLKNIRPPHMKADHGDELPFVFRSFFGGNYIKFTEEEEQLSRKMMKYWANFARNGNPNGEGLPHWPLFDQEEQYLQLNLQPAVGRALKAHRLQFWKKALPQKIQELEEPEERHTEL
row,Ki [µM],SMILES
1,> 100,"O=C1C(=O)c2cccc3c2N(CCC3)C1=O [1-azatricyclo[7.3.1.0^{5,13}]trideca-5,7,9(13)-triene-2,3,4-trione]"
2,> 100,"O=C1C(=O)c2cccnc2-c2ncccc21 [5,6-dihydro-1=10-phenantroline-5,6-dione]"
3,> 100,"COc1ccccc1C(=O)C(=O)c1ccccc1OC [1,2-bis(2-methoxyphenyl)ethane-1,2-dione]"

# Reference: BindingDB's records for doi:10.1021/jm0706867 (St. Jude Research Hospital, 2007)
